What was measured:
[1] = cited from earlier work
[2] = Physical storage stability of aqueous Ifosfamide concentrates with Mesna as solubility-enhancing agent; assay type: physicochemical; conditions: Mesna as solubility-enhancing agent in Ifosfamide concentrates
Procedure: The ratios refer to the proportions by weight of the substances in the solution. The solutions are homogenized, sterilized by filtration and filled under aseptic conditions. Production is carried out under nitrogen. These solutions can also be lyophilized in order to obtain a longer storage life of the pharmaceutical preparation. In addition to the auxiliary agents that are set forth in the examples, the solution can contain also further substances, e.g. sodium chloride, Mannitol, lactose, polyethylenglycol, ethanol, glucose, disaccharide, cyclodextrine.
In the manufacture, 90% of the Water for Injection is cooled to about 5° C. to 10° C., to which is dissolved the phosphate buffer; the Mesna is subsequently added and is homogeneously dissolved. […] The solution so obtained is brought to the specified weight with the cooled Water for Injection, sterile-filtered and filled in injection vials under aseptic conditions. Sterilization and filling are not carried out under cooling.
The making of Examples 4, 5 and 6 is carried out analogously to the description of Example 1.

| physical stabilization of Ifosfamide solution [2] | SMILES | solubility in water (saturation concentration) ([1]; water, room temperature) | solubility of Ifosfamide lowered by addition of auxiliary agents ([1]; with auxiliary agents added) |
| --- | --- | --- | --- |
|  | O=P1(NCCCl)OCCCN1CCCl (stereo not drawn) [Ifosfamide, 2-(chlorethylamino)-3-(2-chlorethyl)-tetrahydro-2H-1,3,2-oxazaphosphorin-2-oxide] | about 140 mg/mL | under 10 % (wt/vol) |
| prevents crystallization | O=S(=O)(O)CCS [Mesna, mercaptoethane sulfonate-sodium] |  |  |
